Results reported in patent US11440880B2, “Thalidomide analogs and methods of use” (The USA, as represented by the Secretary, Department of …, priority 2015, dated 2022).

Assays:
TNF-α protein = TNF-α protein level (ELISA) in LPS-challenged RAW 264.7 cells; format: cell-based, mouse; set-up: key: NS=not significant; a “+” sign=anti-inflammatory or increased cell numbers; a “−” sign=cell toxicity or pro-inflammatory; conditions: LPS 30 or 60 ng/mL, 24 h
How it was run: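 RAW 264.7 cells pretreated 1 h with compound in DMSO vehicle, then challenged with LPS (30 or 60 ng/mL) for 24 h at 37° C. Conditioned-media nitrite by Griess (520 nm, sodium nitrite standard curve, 1.5 μM cutoff) in μM; mouse TNF-α by ELISA as pg/ml or % change from control.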

[1] = tested on: fli1:EGFP zebrafish embryos (intersegmental vessel growth); assay: fli1:EGFP zebrafish embryo angiogenesis assay; format: in vivo; set-up: fli1:EGFP angiogenesis n (survived/tested): concentration or dose not given beside the values; conditions: for minimal effective concentration: Danio rerio, lowest concentration producing an effect, compounds not producing an effect shown at the highest evaluated concentration; for fli1:EGFP angiogenesis n (survived/tested): embryos alive after 24 hours of exposure
How it was run: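 fli1:EGFP embryos grown 24 hpf, dechorionated and exposed to compound or vehicle over a range of concentrations for up to 24 h, with CPS49 as positive control. Imaged at 48 hpf for intersegmental vessel formation and growth; survival after 24 h exposure recorded, and values reflect the lowest concentration producing an effect.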

Compound: Nc1cccc2c1CN(C13CC4CC(CC(C4)C1)C3)C2=O [Compound 77, 2,3-Dihydro-4-amino-2-(tricyclo[3.3.1.1^3,7]dec-1-yl)-1H-isoindol-1-one]
- TNF-α (TNF-α protein; 1 μM): NS
- TNF-α (TNF-α protein; 10 μM): NS
- TNF-α (TNF-α protein; 30 μM): NS
- minimal effective concentration [1]: 10 µg/mL
- fli1:EGFP angiogenesis n (survived/tested) [1]: 43/62

Compound: CC(N1Cc2c(N)cccc2C1=O)C12CC3CC(CC(C3)C1)C2 (stereo not shown) [Compound 81]
- TNF-α (TNF-α protein; 1 μM): NS
- TNF-α (TNF-α protein; 10 μM): NS
- TNF-α (TNF-α protein; 30 μM): +
- minimal effective concentration [1]: 50 µg/mL
- fli1:EGFP angiogenesis n (survived/tested) [1]: 7/8

Compound: O=C1c2ccccc2CN1C12CC3CC(CC(O)(C3)C1)C2 [Compound 86, 2,3-Dihydro-2-(tricyclo[3.3.1.1^3,7]dec-1-hydroxy-3-yl)-1H-isoindol-1-one]
- TNF-α (TNF-α protein; 1 μM): NS
- TNF-α (TNF-α protein; 10 μM): +
- TNF-α (TNF-α protein; 30 μM): +
- minimal effective concentration [1]: 200 µg/mL
- fli1:EGFP angiogenesis n (survived/tested) [1]: 4/12

Compound: O=C1CCC(N2C(=O)c3cccc([N+](=O)[O-])c3C2=O)C(=O)N1 (stereo not shown) [Compound 5]
- TNF-α (TNF-α protein; 1 μM): NS
- TNF-α (TNF-α protein; 10 μM): NS
- TNF-α (TNF-α protein; 30 μM): NS
- TNF-α (TNF-α protein; 60 μM): NS
- TNF-α (TNF-α protein; 100 μM): NS
- minimal effective concentration [1]: 7.5 µg/mL
- fli1:EGFP angiogenesis n (survived/tested) [1]: 8/14

Compound: Nc1cccc2c1CN(C1CCC(=O)NC1=O)C2=S (stereo not shown) [Compound 29]
- TNF-α (TNF-α protein; 3 μM): NS
- TNF-α (TNF-α protein; 10 μM): NS
- TNF-α (TNF-α protein; 30 μM): NS
- minimal effective concentration [1]: 10 µg/mL
- fli1:EGFP angiogenesis n (survived/tested) [1]: 6/17

Compound: O=C1NC(=S)CCC1N1C(=O)c2cccc([N+](=O)[O-])c2C1=O (stereo not shown) [Compound 7, 2-(2-Oxo-6-thioxo-3-piperidinyl)-4-nitro-1H-isoindole-1,3(2H)-dione]
- TNF-α (TNF-α protein; 1 μM): NS
- TNF-α (TNF-α protein; 10 μM): NS
- TNF-α (TNF-α protein; 30 μM): NS
- TNF-α (TNF-α protein; 60 μM): NS
- TNF-α (TNF-α protein; 100 μM): +
- minimal effective concentration [1]: 10 µg/mL
- fli1:EGFP angiogenesis n (survived/tested) [1]: 28/33
